# Data taken from PMC3368886, “ATPase Cycle and DNA Unwinding Kinetics of RecG Helicase” (PLoS ONE, 2012).
# Key:
# RecG⋅DNA(A40:B40) = molecular target: T1, RecG⋅DNA(A40:B40) (Thermotoga maritima, UniProt Q9WY48); experiment: Kinetic model simulation of single turnover of mantATP; format: biochemical
# T1 construct: made in house
# T1 sequence (Q9WY48 1-780): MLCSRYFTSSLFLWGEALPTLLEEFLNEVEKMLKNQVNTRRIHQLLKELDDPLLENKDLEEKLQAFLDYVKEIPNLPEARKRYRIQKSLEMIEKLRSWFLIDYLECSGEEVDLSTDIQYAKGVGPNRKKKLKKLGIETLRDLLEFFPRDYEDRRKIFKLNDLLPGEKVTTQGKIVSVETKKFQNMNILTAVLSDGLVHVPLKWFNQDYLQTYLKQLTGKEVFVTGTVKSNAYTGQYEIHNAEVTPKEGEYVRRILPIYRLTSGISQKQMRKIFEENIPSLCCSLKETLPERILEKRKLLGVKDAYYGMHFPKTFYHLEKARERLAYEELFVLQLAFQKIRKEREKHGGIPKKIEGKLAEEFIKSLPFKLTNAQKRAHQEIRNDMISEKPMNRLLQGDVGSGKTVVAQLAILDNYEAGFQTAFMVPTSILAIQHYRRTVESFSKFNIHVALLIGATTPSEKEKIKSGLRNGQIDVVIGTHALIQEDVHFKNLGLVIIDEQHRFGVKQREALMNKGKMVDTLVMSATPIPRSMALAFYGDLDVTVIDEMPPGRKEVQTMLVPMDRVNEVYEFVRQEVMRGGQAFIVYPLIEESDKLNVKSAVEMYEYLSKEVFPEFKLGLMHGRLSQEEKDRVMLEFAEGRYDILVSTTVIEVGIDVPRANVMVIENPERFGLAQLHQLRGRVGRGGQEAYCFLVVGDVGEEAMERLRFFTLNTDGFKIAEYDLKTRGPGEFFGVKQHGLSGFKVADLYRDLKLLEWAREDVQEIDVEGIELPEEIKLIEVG
# Method: In order to test the data obtained with mantATP for consistency, a simple kinetic model for the ATPase mechanism was used to simulate the data in Figure 4A. The model was based on the scheme in Figure 2A, but included a two-step triphosphate binding as in Figure 2B. The model assumed that Pi release is irreversible and mantADP remains bound under these conditions as its K d (<50 nM) is much less than the experimental concentrations. The difference in fluorescence intensity between protein-bound mantATP and mantADP was included in the modeling with bound mantATP representing 20% of the overall increase, as shown experimentally. The best-fit simulation is shown in Figure 4B, which gave mantATP binding at 5.7 s^−1, followed by a rapid step (“conformation change”) of 30 s^−1, hydrolysis at 0.25 s^−1 and Pi release is fast (>10 s^−1). […] There is a discrepancy with the fit to the data at long times, as the experimental traces are slightly biphasic, which could be due to a small proportion of the protein having modified activity due to damage, for example.
# Data were fitted to theoretical equations using the stopped-flow software or Grafit. Kinetic simulations were performed using Berkeley Madonna (Version 8.3, University of California at Berkeley) and using Global Kinetic Explorer (Kintek). Global fits were performed using Global Kinetic Explorer.
# RecG [1] = molecular target: T2, RecG (Thermotoga maritima, UniProt Q9WY48); experiment: Stopped-flow mantATP binding in the absence of DNA
# T2 construct: made in house
# T2 sequence (Q9WY48 1-780): T1 sequence (Q9WY48 1-780)
# Text: The kinetics of specific steps of the ATPase cycle were investigated in the absence of DNA, to determine which are modulated by the interaction with DNA. For the association measurements between RecG and mantATP, RecG was mixed with excess mantATP in the stopped-flow apparatus and the fluorescence followed with time. Following fitting by single exponentials, there was a linear relationship between the observed rate constant and nucleotide concentration (Figure S3A).
# As done for the RecG⋅DNA complex, measurements were also taken with an excess of RecG over mantATP (Figure S3B). A large, relative rapid, increase in mant fluorescence was observed followed by a small gradual increase. The rate constants are consistent with those at excess mantATP. Under the same conditions of excess RecG over mantATP, mantATP cleavage (acid quench) and Pi release were measured (Figure S3B). […] The cleavage step rate constant was 4×10^−4 s^−1, ∼10^3 slower than in the presence of DNA. […] The cleavage step was greatly stimulated by DNA.
# Supplementary file pone.0038270.s003.tif: Figure S3 Kinetic measurements in the absence of DNA. (A) Association kinetics with mantATP. Dependence of the observed rate constants on mantATP concentration from mixing 0.5 µM RecG with excess mantATP under the same conditions as Figure 3. Points shown are typically an average of three individual measurements. The best linear fit gives a slope of 0.4 (±0.15) µM^−1 s^−1 and intercept 1.7 (±0.6) s^−1. (B) Fluorescence trace upon mixing 2.5 µM RecG with 0.5 µM mantATP under the conditions of Figure 4. The trace was fitted by an exponential and a slope giving rates of 0.42 (±0.12) s^−1 for the former. Note that as the fluorescence slowly increases beyond the time course, it was not possible to calibrate the ordinate. Inset: Hydrolysis and Pi release for these conditions. The circles represent single time points for a quenched-flow measurement of mantADP formation. Pi release kinetics (continuous line) were measured for the same mixture containing 10 µM MDCC-PBP. (TIF) Click here for additional data file.
# RecG [2] = molecular target: T2, RecG; experiment: Double-mix stopped-flow: RecG⋅mantATP then mixed with DNA; format: biochemical; settings: RecG + mantATP aged 1 s, then mixed with DNA junction (A40:B40)
# Method: Figure 4 Kinetic measurement of mantATP with excess of RecG and DNA: binding, hydrolysis and Pi release. The concentrations for all experiments were 0.5 µM mantATP, 2.5 µM RecG, 5 µM DNA (A40:B40) and 10 µM MDCC-PBP (for Pi measurement). All measurements were carried out at 20°C in the buffer described in Materials and Methods. (A) Time course of mant fluorescence (solid line), mantADP formation (circles) and Pi release (dashed line), measured as described in materials and methods. […] (B) Simulation of these time courses, based upon a global model for a single turnover of mantATP as described in the text. (C) The time course of mant fluorescence upon mixing 0.5 µM mantATP and 2.5 µM RecG with 5 µM DNA junction (A40:B40) after a first mixing of 5 µM RecG and 1 µM mantATP and aging for 1 s.
# As the cleavage step is so slow in the absence of DNA, a double-mix, stopped-flow experiment was performed in order to see if the biphasic increase in mant fluorescence could be separated into the individual processes of mantATP binding and hydrolysis. An excess of RecG was mixed with mantATP and this mix aged for 1 s to allow binding but not hydrolysis. This solution was then mixed with DNA. […] This rate was similar to that of the slower phase, measured above, consistent with this phase being due to DNA-induced hydrolysis.
compound,measurement,setting,value
"CNc1ccccc1C(=O)O[C@H]1[C@@H](O)[C@H](n2cnc3c(N)ncnc32)O[C@@H]1COP(=O)(O)OP(=O)(O)OP(=O)(O)O [mantATP, 2′(3′)-O-(N-methylanthraniloyl)ATP]",Pi release (best-fit simulation),RecG⋅DNA(A40:B40),> 10 s⁻¹
same,hydrolysis (best-fit simulation),RecG⋅DNA(A40:B40),0.25 s⁻¹
same,mantATP binding (best-fit simulation),RecG⋅DNA(A40:B40),5.7 s⁻¹
same,rapid step (conformation change) (best-fit simulation),RecG⋅DNA(A40:B40),30 s⁻¹
same,intercept (dissociation),"RecG [1]; 0.5 µM RecG, excess mantATP",1.7 (±0.6) s^−1
same,second order association rate constant (slope),"RecG [1]; 0.5 µM RecG, excess mantATP",0.4 (±0.15) µM^−1s^−1
same,rate of exponential fluorescence increase,RecG [1]; 2.5 µM RecG with 0.5 µM mantATP,0.42 (±0.12) s^−1
same,Kd,RecG [1]; from intercept and slope,4.25 µM
same,rate constant of single exponential increase in mant fluorescence,RecG [2],0.3 (±0.04) s^−1
